According to ChEMBL document CHEMBL3217515, “Synthesis and biological evaluation of 2,3-bis(het)aryl-4-azaindole derivatives as protein kinase inhibitors” (Medchemcomm, 2011):

Assays:
[1] = target: Cyclin-dependent kinase 5 (Homo sapiens, UniProt Q00535); experiment: Inhibition of CDK5 (unknown origin)
[2] = target: Dual specificity tyrosine-phosphorylation-regulated kinase 1A (Homo sapiens, UniProt Q13627); experiment: Inhibition of DYRK1A (unknown origin)
[3] = target: Glycogen synthase kinase-3 beta (Homo sapiens, UniProt P49841); experiment: Inhibition of GSK3beta (unknown origin)
Glycogen synthase kinase-3 beta, sequence (P49841 whole entry): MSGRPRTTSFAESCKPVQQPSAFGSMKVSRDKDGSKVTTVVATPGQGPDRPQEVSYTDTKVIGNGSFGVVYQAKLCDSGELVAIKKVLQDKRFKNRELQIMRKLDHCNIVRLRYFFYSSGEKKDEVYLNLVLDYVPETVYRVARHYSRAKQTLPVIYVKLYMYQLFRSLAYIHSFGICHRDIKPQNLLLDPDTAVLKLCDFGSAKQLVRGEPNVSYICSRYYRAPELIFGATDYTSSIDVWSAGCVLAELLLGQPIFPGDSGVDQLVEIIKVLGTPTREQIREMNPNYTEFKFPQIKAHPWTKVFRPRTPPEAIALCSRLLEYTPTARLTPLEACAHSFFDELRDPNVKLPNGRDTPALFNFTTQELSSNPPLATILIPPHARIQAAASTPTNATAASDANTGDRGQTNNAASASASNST

[4] = target: RAF proto-oncogene serine/threonine-protein kinase (Homo sapiens, UniProt P04049); experiment: Inhibition of RAF1 (unknown origin)
RAF proto-oncogene serine/threonine-protein kinase, sequence (P04049 whole entry): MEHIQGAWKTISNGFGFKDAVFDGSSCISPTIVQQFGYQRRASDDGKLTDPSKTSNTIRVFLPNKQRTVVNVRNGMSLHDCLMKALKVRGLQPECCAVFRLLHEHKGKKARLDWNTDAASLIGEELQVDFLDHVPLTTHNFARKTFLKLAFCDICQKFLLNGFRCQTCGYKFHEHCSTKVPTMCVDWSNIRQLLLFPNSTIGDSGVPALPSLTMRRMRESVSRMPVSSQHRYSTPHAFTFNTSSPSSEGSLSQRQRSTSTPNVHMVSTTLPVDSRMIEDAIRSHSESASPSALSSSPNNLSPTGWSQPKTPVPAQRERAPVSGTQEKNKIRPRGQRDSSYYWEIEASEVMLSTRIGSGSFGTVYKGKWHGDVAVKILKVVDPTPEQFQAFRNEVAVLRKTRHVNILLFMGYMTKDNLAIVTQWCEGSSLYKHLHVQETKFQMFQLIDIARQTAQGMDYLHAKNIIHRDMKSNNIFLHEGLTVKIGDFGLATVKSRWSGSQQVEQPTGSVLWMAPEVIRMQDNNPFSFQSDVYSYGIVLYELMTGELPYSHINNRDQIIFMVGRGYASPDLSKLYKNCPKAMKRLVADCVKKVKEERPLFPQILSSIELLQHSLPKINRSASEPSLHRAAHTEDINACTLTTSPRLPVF

Cyclin-dependent kinase 5, sequence (Q00535 whole entry): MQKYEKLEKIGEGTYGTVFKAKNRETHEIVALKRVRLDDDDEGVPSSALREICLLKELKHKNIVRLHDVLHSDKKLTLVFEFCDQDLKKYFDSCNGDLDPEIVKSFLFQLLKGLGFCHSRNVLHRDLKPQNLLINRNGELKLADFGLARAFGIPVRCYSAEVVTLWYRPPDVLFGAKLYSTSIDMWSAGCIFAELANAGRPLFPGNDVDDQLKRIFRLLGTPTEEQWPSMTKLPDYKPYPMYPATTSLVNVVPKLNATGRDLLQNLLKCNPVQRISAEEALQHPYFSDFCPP

Compound | IC50 [1] [µM] | IC50 [2] [µM] | IC50 [3] [µM] | IC50 [4] [µM]
COc1ccc2[nH]c(-c3cccc(O)c3)c(-c3cccnc3)c2n1 | > 10 | > 10 | > 10 | 16.5
COc1ccc2[nH]c(-c3ccc(O)cc3)c(-c3ccncc3)c2n1 | > 10 | 0.47 | > 10 | 1.3
COc1ccc2[nH]c(-c3ccc4cc(O)ccc4c3)c(-c3ccncc3)c2n1 | > 10 | 0.84 | > 10 | > 50
COc1ccc2[nH]c(-c3cccc(O)c3)c(-c3ccncc3)c2n1 | > 10 | 0.7 | > 10 | 0.286
COc1ccc2[nH]c(-c3cc(O)cc(O)c3)c(-c3ccncc3)c2n1 | > 10 | > 10 | > 10 | > 50
COc1ccc2[nH]c(-c3ccccc3O)c(-c3ccncc3)c2n1 | > 10 | 0.23 | > 10 | 
COc1ccc2[nH]c(-c3cccc(O)c3)c(-c3ccccn3)c2n1 | > 10 | > 10 | > 10 | 9.2
COc1ccc2[nH]c(-c3ccccc3)c(-c3ccncc3)c2n1 | > 10 | 1.3 | > 10 | 3.2
COc1ccc2[nH]c(-c3cccc(F)c3)c(-c3ccncc3)c2n1 | > 10 | 1.8 | > 10 | 4.3
